Laboratory results published in patent publication US20250154686A1, “COMPOUND LIBRARY” (CHUGAI SEIYAKU KABUSHIKI KAISHA, priority 2021, published 2025).

Biological target: T1, Bcl-2 protein (Recombinant Human Bcl-2 Protein) (Homo sapiens, UniProt P10415)
T1 construct: purchased Novus Biologicals NBP2-34889
Test: AS-MS evaluation of binding of the Example 4 mixture library (1200 compounds/well) to Bcl-2, ASMS ratio (%)
Details: mixture library, value belongs to the MS peak assigned to the compound; for ASMS ratio (%) n = 1: replicate n = 1; for ASMS ratio (%) n = 2: replicate n = 2
Procedure, shortened: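 Binding is read as an ASMS ratio from reverse-phase LC/MS peak data. Samples: 1200 compounds at 20 nM each with 20 μM Bcl-2, 1 h at 23 °C in the dark, then P-2 SEC and organic-solvent extraction; references lacked protein, with and without SEC.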

T1 sequence (P10415 whole entry): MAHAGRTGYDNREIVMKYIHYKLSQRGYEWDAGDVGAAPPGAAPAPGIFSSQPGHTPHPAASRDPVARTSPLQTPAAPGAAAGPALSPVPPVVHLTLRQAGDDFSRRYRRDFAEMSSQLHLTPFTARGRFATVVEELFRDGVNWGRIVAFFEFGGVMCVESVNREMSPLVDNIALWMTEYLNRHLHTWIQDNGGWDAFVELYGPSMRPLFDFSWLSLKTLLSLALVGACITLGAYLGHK

SMILES	ASMS ratio (%) n = 1 [%]	ASMS ratio (%) n = 2 [%]
CCOc1cccc(C#Cc2ccccc2CN2CCN(c3ccc(C(=O)NS(C)(=O)=O)cc3)CC2)c1 [Compound B2I069-01, 4-[4-[[2-[2-(3-Ethoxyphenyl)ethynyl]phenyl]methyl]piperazin-1-yl]-N-methylsulfonylbenzamide]	0.0	−2.2
CCOc1cncc(C#Cc2ccccc2CN2CCN(c3ccc(C(=O)NS(C)(=O)=O)cc3)CC2)c1 [Compound B2I070-01, 4-[4-[[2-[2-(5-Ethoxypyridin-3-yl)ethynyl]phenyl]methyl]piperazin-1-yl]-N-methylsulfonylbenzamide]		0.0
CCOc1cccc(-c2ccccc2CN2CCN(c3ccc(C(=O)NS(C)(=O)=O)nn3)CC2)c1 [Compound B2I071-01, 6-[4-[[2-(3-Ethoxyphenyl)phenyl]methyl]piperazin-1-yl]-N-methylsulfonylpyridazine-3-carboxamide]	−1.2	−1.9
CCOc1cncc(-c2ccccc2CN2CCN(c3ccc(C(=O)NS(C)(=O)=O)nn3)CC2)c1 [Compound B2I072-01, 6-[4-[[2-(5-Ethoxypyridin-3-yl)phenyl]methyl]piperazin-1-yl]-N-methylsulfonylpyridazine-3-carboxamide]	0.8	1.3
CCOc1cccc(-c2ccc(CN3CCN(c4ccc(C(=O)NS(C)(=O)=O)nn4)CC3)cc2C)c1 [Compound B2I073-01, 6-[4-[[4-(3-Ethoxyphenyl)-3-methylphenyl]methyl]piperazin-1-yl]-N-methylsulfonylpyridazine-3-carboxamide]	0.0	0.0
CCOc1cncc(-c2ccc(CN3CCN(c4ccc(C(=O)NS(C)(=O)=O)nn4)CC3)cc2C)c1 [Compound B2I074-01, 6-[4-[[4-(5-Ethoxypyridin-3-yl)-3-methylphenyl]methyl]piperazin-1-yl]-N-methylsulfonylpyridazine-3-carboxamide]	0.0	−8.4
CCOc1cccc(-c2ccc(CN3CCN(c4ccc(C(=O)NS(C)(=O)=O)nn4)CC3)c(CC)c2)c1 [Compound B2I075-01, 6-[4-[[4-(3-Ethoxyphenyl)-2-ethylphenyl]methyl]piperazin-1-yl]-N-methylsulfonylpyridazine-3-carboxamide]	0.0	0.0
CCOc1cncc(-c2ccc(CN3CCN(c4ccc(C(=O)NS(C)(=O)=O)nn4)CC3)c(CC)c2)c1 [Compound B2I076-01, 6-[4-[[4-(5-Ethoxypyridin-3-yl)-2-ethylphenyl]methyl]piperazin-1-yl]-N-methylsulfonylpyridazine-3-carboxamide]	0.2	−3.2
CCOc1cccc(-c2ccc(CN3CCN(c4ccc(C(=O)NS(C)(=O)=O)nn4)CC3)cc2F)c1 [Compound B2I077-01, 6-[4-[[4-(3-Ethoxyphenyl)-3-fluorophenyl]methyl]piperazin-1-yl]-N-methylsulfonylpyridazine-3-carboxamide]	0.0	0.0
CCOc1cncc(-c2ccc(CN3CCN(c4ccc(C(=O)NS(C)(=O)=O)nn4)CC3)cc2F)c1 [Compound B2I078-01, 6-[4-[[4-(5-Ethoxypyridin-3-yl)-3-fluorophenyl]methyl]piperazin-1-yl]-N-methylsulfonylpyridazine-3-carboxamide]	0.0	0.0
CCOc1cccc(-c2ccc(CN3CCN(c4ccc(C(=O)NS(C)(=O)=O)nn4)CC3)c(OC)c2)c1 [Compound B2I079-01, 6-[4-[[4-(3-Ethoxyphenyl)-2-methoxyphenyl]methyl]piperazin-1-yl]-N-methylsulfonylpyridazine-3-carboxamide]	0.0	0.0
